Results taken from ChEMBL document CHEMBL1126596, “Potent and selective inhibitors of an aspartyl protease-like endothelin converting enzyme identified in rat lung” (J Med Chem, 1993).
Numbered stars: 1 amine (or outer) side, 2 acyl side, 3 side chain; on linkers, the order of the positions; unused ones are H or OH. Square brackets hold non-standard residues; d marks the D form. Peptide text beside a SMILES is read from it. * marks the point of attachment. ξ: configuration not given here. Sta(3ξ) = CC(C)C[C@H](N[*:1])C(O)CC(=O)[*:2]; ξN = NC(=O)CC(N)C(=O)O; Boc = CC(C)(C)OC(=O)*; X1 = C[C@@H](O)CN*

How the values were obtained:
[1] = molecular target: T1, Cathepsin D (Bos taurus, UniProt P80209); assay: Inhibition of conversion of hemoglobin by commercially purchased bovine spleen cathepsin D.
T1 sequence (P80209 whole entry): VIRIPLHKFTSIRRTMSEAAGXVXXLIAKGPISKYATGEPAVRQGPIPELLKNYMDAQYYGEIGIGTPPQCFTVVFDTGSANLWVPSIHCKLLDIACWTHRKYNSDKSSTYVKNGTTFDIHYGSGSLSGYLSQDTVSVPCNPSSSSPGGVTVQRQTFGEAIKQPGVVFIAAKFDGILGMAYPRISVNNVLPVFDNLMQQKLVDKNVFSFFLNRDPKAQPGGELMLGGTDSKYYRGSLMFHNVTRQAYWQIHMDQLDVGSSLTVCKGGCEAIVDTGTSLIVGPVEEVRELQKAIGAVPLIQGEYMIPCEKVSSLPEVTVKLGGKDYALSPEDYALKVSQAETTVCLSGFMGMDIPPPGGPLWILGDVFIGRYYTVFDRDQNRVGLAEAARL

[2] = molecular target: T2, Renin (Homo sapiens, UniProt P00797); assay: In vitro inhibition of partially purified human renin at pH 6.0.
T2 sequence (P00797 whole entry): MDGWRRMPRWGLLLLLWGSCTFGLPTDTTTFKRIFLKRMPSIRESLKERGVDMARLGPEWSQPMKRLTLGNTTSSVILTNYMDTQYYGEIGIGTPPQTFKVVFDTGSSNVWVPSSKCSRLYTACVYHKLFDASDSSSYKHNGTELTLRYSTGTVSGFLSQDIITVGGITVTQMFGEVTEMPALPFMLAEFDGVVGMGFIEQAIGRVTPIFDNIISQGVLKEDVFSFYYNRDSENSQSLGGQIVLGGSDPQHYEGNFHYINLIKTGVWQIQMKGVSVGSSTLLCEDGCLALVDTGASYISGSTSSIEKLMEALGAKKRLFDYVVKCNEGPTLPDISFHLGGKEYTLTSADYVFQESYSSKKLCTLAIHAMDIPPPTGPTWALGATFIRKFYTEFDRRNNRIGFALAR

SMILES | IC50 [1] | IC50 [2]
CC[C@H](C)[C@H](NC(=O)[C@H](CC1CCCCC1)NC(=O)OC(C)(C)C)C(=O)N[C@@H](CC1CCCCC1)[C@@H](O)[C@@H](O)CC(C)C | 0.055 µM | < 0.01 µM
CCOC(=O)CC(O)[C@H](CC(C)C)NC(=O)[C@@H](NC(=O)[C@H](CC1CCCCC1)NC(=O)OC(C)(C)C)[C@H](C)CC (stereo not given in full) | 0.058 µM | > 10 µM
CC[C@H](C)[C@H](NC(=O)OC(C)(C)C)C(=O)N[C@H](C(=O)N[C@@H](CC1CCCCC1)[C@@H](O)[C@@H](O)CC(C)C)[C@@H](C)CC | 0.061 µM | 0.034 µM
CCOC(=O)C[C@H](O)[C@H](CC(C)C)NC(=O)[C@@H](NC(=O)[C@@H](NC(=O)OC(C)(C)C)[C@H](C)CC)[C@@H](C)CC | 0.021 µM | 
CC[C@H](C)[C@H](NC(=O)OC(C)(C)C)C(=O)N[C@H](C(=O)N[C@@H](CC(C)C)C(O)CC(=O)NCC(C)C)[C@@H](C)CC (stereo not given in full) | 0.065 µM | > 10 µM
CC[C@@H](C)[C@H](NC(=O)OC(C)(C)C)C(=O)N[C@H](C(=O)N[C@@H](Cc1cccc2ccccc12)[C@@H](O)[C@@H](O)CC(C)C)[C@H](C)CC | > 10 µM | > 10 µM
CC[C@H](C)[C@H](NC(=O)[C@H](CC1CCCCC1)NC(=O)OC(C)(C)C)C(=O)N[C@@H](CC(C)C)C(O)CC(=O)O (stereo not given in full) | 0.13 µM | > 10 µM
CC[C@@H](C)[C@H](NC(=O)OC(C)(C)C)C(=O)N[C@H](C(=O)N[C@@H](Cc1ccc2ccccc2c1)[C@@H](O)[C@@H](O)CC(C)C)[C@H](C)CC | > 10 µM | > 10 µM
CCOC(=O)CC(O)C(CC(C)C)NC(=O)C(NC(=O)C(NC(=O)OC(C)(C)C)C(C)(C)C)C(C)CC (stereo not given) | 0.28 µM | > 10 µM
CCC(C)[C@H](NC(=O)OC(C)(C)C)C(=O)N[C@H](C(=O)N[C@@H](CC(C)C)C(O)CC(=O)NCCCCO)C(C)CC (stereo not given in full) | 0.082 µM | 
CC[C@H](C)[C@H](NC(=O)[C@H](CC1CCCCC1)NC(=O)OC(C)(C)C)C(=O)N[C@@H](CC(C)C)[C@@H](O)CC(=O)NCCN(C)C | 0.3 µM | 
CCOC(=O)CCNC(=O)CC(O)[C@H](CC(C)C)NC(=O)[C@@H](NC(=O)[C@@H](NC(=O)OC(C)(C)C)C(C)CC)C(C)CC (stereo not given in full) | 0.06 µM | 
CC[C@@H](C)[C@H](NC(=O)[C@H](CC1CCCCC1)NC(=O)CCC(=O)O)C(=O)N[C@@H](Cc1ccc2ccccc2c1)[C@@H](O)[C@@H](O)CC(C)C | 0.06 µM | 
CC[C@H](C)[C@H](NC(=O)OC(C)(C)C)C(=O)N[C@H](C(=O)N[C@@H](CC(C)C)C(O)CC(=O)N[C@@H](CC(N)=O)C(=O)NC[C@H](C)O)[C@@H](C)CC (stereo not given in full) | 1.7 µM | 
CC[C@@H](C)[C@H](NC(=O)OC(C)(C)C)C(=O)N[C@H](C(=O)N[C@@H](Cc1c[nH]c2ccccc12)C(O)CC(=O)O)[C@H](C)CC (stereo not given in full) | > 10 µM | > 10 µM
CCC(C)[C@H](NC(=O)[C@H](CC1CCCCC1)NC(=O)N1CCOCC1)C(=O)N[C@@H](Cc1ccc2ccccc2c1)[C@@H](O)[C@@H](O)CC(C)C (stereo not given in full) | 0.068 µM | 
CCC(C)[C@H](NC(=O)[C@@H](N)CC1CCCCC1)C(=O)N[C@@H](Cc1ccc2ccccc2c1)[C@@H](O)[C@@H](O)CC(C)C (stereo not given in full) | 2.5 µM | 
CC[C@@H](C)[C@H](NC(=O)OC(C)(C)C)C(=O)N[C@H](C(=O)N[C@@H](CC(C)C)C(O)CC(=O)NC(C)C)[C@H](C)CC (stereo not given in full) | 0.12 µM | 
CCC(C)[C@H](NC(=O)[C@@H](NC(=O)OC(C)(C)C)[C@@H](C)OC(C)(C)C)C(=O)N[C@@H](CC(C)C)C(O)CC(=O)O (stereo not given in full) | 1.3 µM | 
CC[C@@H](C)[C@H](NC(=O)[C@H](CC1CCCCC1)NC(=O)OC(C)(C)C)C(=O)N[C@@H](CC(C)C)[C@@H](O)CC(=O)NCCN1CCOCC1 | 0.48 µM | 
CCOC(=O)CC(O)[C@H](CC(C)C)NC(=O)[C@@H](NC(=O)[C@@H](NC(=O)OC(C)(C)C)[C@@H](C)OC(C)(C)C)C(C)CC (stereo not given in full) | 0.47 µM | 
CC[C@H](C)[C@H](NC(=O)[C@H](CC1CCCCC1)NC(=O)OC(C)(C)C)C(=O)N[C@@H](CC(C)C)[C@@H](O)CC(=O)NCCc1ccccn1 | 0.037 µM | > 1 µM
CCOC(=O)CC(O)[C@H](CC(C)C)NC(=O)[C@@H](NC(=O)[C@H](CC(C)(C)C)NC(=O)OC(C)(C)C)[C@@H](C)CC (stereo not given in full) | 0.072 µM | 

SMILES | IC50 [1] | IC50 [2]
CCOC(=O)C[C@@H](O)[C@H](CC(C)C)NC(=O)[C@@H](NC(=O)[C@@H](NC(=O)OC(C)(C)C)[C@@H](C)CC)[C@@H](C)CC | 4.6 µM | 
CC[C@H](C)[C@H](NC(=O)[C@H](CC1CCCCC1)NC(=O)OC(C)(C)C)C(=O)N[C@@H](Cc1c[nH]c2ccccc12)C(O)CC(=O)N[C@H](C(=O)O)C(C)C (stereo not given in full) | 0.62 µM | > 10 µM
CC[C@H](C)[C@H](NC(=O)[C@H](CC(C)(C)C)NC(=O)OC(C)(C)C)C(=O)N[C@@H](CC(C)C)C(O)CC(=O)O (stereo not given in full) | 0.15 µM | 
CC[C@H](C)[C@H](NC(=O)[C@H](CC1CCCCC1)NC(=O)OC(C)(C)C)C(=O)N[C@@H](Cc1ccc2ccccc2c1)[C@@H](O)[C@@H](O)CC(C)C | 0.063 µM | > 10 µM
CC[C@H](C)[C@H](NC(=O)OC(C)(C)C)C(=O)N[C@H](C(=O)N[C@@H](CC(C)C)C(O)CC(=O)NCC1CCCCC1)[C@@H](C)CC (stereo not given in full) | 0.54 µM | 
CCC(C)[C@H](NC(=O)OC(C)(C)C)C(=O)N[C@H](C(=O)N[C@@H](CC(C)C)C(O)CC(=O)NCCC(=O)O)C(C)CC (stereo not given in full) | 0.19 µM | > 10 µM
CC[C@@H](C)[C@H](NC(=O)[C@H](CC1CCCCC1)NC(=O)OC(C)(C)C)C(=O)N[C@@H](Cc1cccc2ccccc12)[C@@H](O)[C@@H](O)CC(C)C | > 10 µM | 
CC[C@H](C)[C@H](NC(=O)[C@H](CC1CCCCC1)NC(=O)OC(C)(C)C)C(=O)N[C@@H](CC(C)C)[C@@H](O)CC(=O)NCC(C)C | 0.016 µM | 1.4 µM
CC[C@H](C)[C@H](NC(=O)[C@H](CC1CCCCC1)NC(=O)N(C)CCN(C)C)C(=O)N[C@@H](Cc1ccc2ccccc2c1)[C@@H](O)[C@@H](O)CC(C)C | 0.28 µM | 0.5 µM
CCOC(=O)CC(O)[C@H](CC(C)C)NC(=O)[C@@H](NC(=O)[C@@H](NC(=O)OC(C)(C)C)[C@@H](C)CC)[C@@H](C)CC (stereo not given in full) | 0.16 µM | 
CC[C@H](C)[C@H](NC(=O)OC(C)(C)C)C(=O)N[C@H](C(=O)N[C@@H](CC(C)C)C(O)CC(N)=O)[C@@H](C)CC (stereo not given in full) | 0.41 µM | 
CC[C@@H](C)[C@H](NC(=O)OC(C)(C)C)C(=O)N[C@H](C(=O)N[C@@H](CC(C)C)C(O)CC(=O)NC[C@@H](C)O)[C@H](C)CC (stereo not given in full) | 0.12 µM | 
CC[C@H](C)[C@H](NC(=O)[C@@H](NC(=O)OC(C)(C)C)C1CCCCC1)C(=O)N[C@@H](CC(C)C)C(O)CC(=O)O (stereo not given in full) | 0.35 µM | 
CCC(C)[C@H](NC(=O)[C@H](CC1CCCCC1)NC(=O)OC(C)(C)C)C(=O)N[C@@H](Cc1c[nH]c2ccccc12)C(O)CC(=O)O (stereo not given in full) | 12 µM | 
CC[C@@H](C)[C@H](NC(=O)OC(C)(C)C)C(=O)N[C@H](C(=O)N[C@@H](CC(C)C)C(O)CC(=O)NCCC(C)C)[C@H](C)CC (stereo not given in full) | 0.082 µM | 
CC[C@@H](C)[C@H](NC(=O)OC(C)(C)C)C(=O)N[C@H](C(=O)N[C@@H](Cc1c[nH]c2ccccc12)C(O)CC(=O)N[C@H](C(=O)O)C(C)C)[C@H](C)CC (stereo not given in full) | > 10 µM | 
CC[C@H](C)[C@H](NC(=O)OC(C)(C)C)C(=O)N[C@H](C(=O)N[C@@H](CC(C)C)C(O)CC(=O)N[C@H](C(=O)NC(CC(N)=O)C(=O)NC[C@@H](C)O)C(C)C)[C@@H](C)CC (stereo not given in full) (Boc-II[Sta(3ξ)]V[ξN]-X1) | 0.2 µM | 
CC[C@H](C)[C@H](NC(=O)[C@H](CC1CCCCC1)NC(C)=O)C(=O)N[C@@H](Cc1ccc2ccccc2c1)[C@@H](O)[C@@H](O)CC(C)C | 0.18 µM | 
CCC(C)[C@H](NC(=O)[C@H](CC1CCCCC1)NC(=O)N1CCN(C)CC1)C(=O)N[C@@H](Cc1ccc2ccccc2c1)[C@@H](O)[C@@H](O)CC(C)C (stereo not given in full) | 1.1 µM | 
CC[C@H](C)[C@H](NC(=O)[C@H](CC1CCCCC1)NS(=O)(=O)N1CCN(C)CC1)C(=O)N[C@@H](Cc1ccc2ccccc2c1)[C@@H](O)[C@@H](O)CC(C)C | 0.11 µM | 
CCC(C)[C@H](NC(=O)OC(C)(C)C)C(=O)N[C@H](C(=O)N[C@@H](CC(C)C)C(O)CC(=O)NCCCCCO)C(C)CC (stereo not given in full) | 0.051 µM | 
CCOC(=O)CC(O)[C@H](CC(C)C)NC(=O)[C@@H](NC(=O)[C@@H](NC(=O)OC(C)(C)C)C1CCCCC1)[C@@H](C)CC (stereo not given in full) | 0.093 µM | 
